For this assay, the target named is T1, Glucose-6-phosphate 1-dehydrogenase (Leuconostoc mesenteroides, UniProt P11411).
T1 sequence (P11411 whole entry): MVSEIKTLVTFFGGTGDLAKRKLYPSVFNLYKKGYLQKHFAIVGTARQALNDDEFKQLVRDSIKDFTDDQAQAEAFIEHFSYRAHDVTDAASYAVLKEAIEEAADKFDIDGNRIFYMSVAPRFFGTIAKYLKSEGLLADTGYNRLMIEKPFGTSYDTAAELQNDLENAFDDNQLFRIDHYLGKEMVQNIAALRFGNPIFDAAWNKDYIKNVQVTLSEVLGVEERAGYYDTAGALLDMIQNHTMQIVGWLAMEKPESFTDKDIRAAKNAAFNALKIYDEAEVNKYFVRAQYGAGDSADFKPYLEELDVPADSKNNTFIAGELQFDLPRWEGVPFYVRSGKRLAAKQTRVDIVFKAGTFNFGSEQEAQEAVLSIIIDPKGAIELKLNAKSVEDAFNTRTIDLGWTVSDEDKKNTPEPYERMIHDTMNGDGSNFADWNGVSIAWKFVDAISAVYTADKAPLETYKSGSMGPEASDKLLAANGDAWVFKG
Nature of the assay: Leuconostoc G6PDH inhibition potency, SAR follow-up, counter-screen for TbHK1 inhibitor project, biochemical, analogue series, IC50 (AID 2579). (A counterscreen serves to expose hits that act by an unwanted route or on another target.)

As a reminder, the IC50 is the concentration that gives 50% inhibition. Compound `COc1ccc(C(=O)Nc2ccccc2C(=O)O)cc1Cl` displayed an IC50 above 25 µM.

In turn, `O=C(Cn1sc2ccccc2c1=O)Nc1ccc(Cl)cc1` [N-(4-chlorophenyl)-2-(3-oxidanylidene-1,2-benzothiazol-2-yl)ethanamide] gave an IC50 above 25 µM.

Take `O=C(Nc1cc(Cl)ccc1C(=O)O)c1ccncc1` [4-chloro-2-[[oxo(pyridin-4-yl)methyl]amino]benzoic acid]: the IC50 was above 25 µM.

`COc1cccc(CC(=O)Nc2cc(Cl)ccc2C(=O)O)c1` [4-chloro-2-[[2-(3-methoxyphenyl)-1-oxoethyl]amino]benzoic acid]: the IC50 is above 25 µM.

`COc1ccc(C(=O)Nc2cc(F)cc(F)c2O)cc1` [N-(3,5-difluoro-2-hydroxyphenyl)-4-methoxybenzamide] had an IC50 above 25 µM.

Regarding `COc1ccc(C(=O)Nc2cnccc2C(=O)O)cc1` [3-[(4-methoxybenzoyl)amino]pyridine-4-carboxylic acid], the IC50 is above 25 µM.

For `O=C(Cn1sc2ccccc2c1=O)Nc1ccc(F)cc1` [N-(4-fluorophenyl)-2-(3-oxo-1,2-benzothiazol-2-yl)acetamide], the concentration for half-maximal inhibition (IC50) was above 25 µM.

As to `COc1ccc(-c2cc3ccccc3[nH]2)cc1` [KUC105790N], the 50% inhibitory concentration (IC50) was above 25 µM.

For the compound `COc1ccc(C(=O)Nc2cc(C(=O)O)ccc2Cl)cc1` [4-chloro-3-[(4-methoxybenzoyl)amino]benzoic acid], the IC50 was above 25 µM.

In turn, `O=c1c2ccc(Br)cc2sn1-c1ccccc1` showed an IC50 above 25 µM.

Compound `O=c1c(Br)csn1-c1ccc(Br)cc1` [4-bromo-2-(4-bromophenyl)-3-isothiazolone] came in with an IC50 above 25 µM.

`O=C(CCn1sc2ccccc2c1=O)Nc1ccccc1` [3-(3-oxidanylidene-1,2-benzothiazol-2-yl)-N-phenyl-propanamide] came in with an IC50 above 25 µM.

`O=C(Nc1cc(Cl)ccc1C(=O)O)c1ccc2c(c1)OCO2` [KUC106004N] yielded an IC50 above 25 µM.

On to `COc1ccc(NC(=O)c2ccccc2C(=O)O)cc1` [KSC-6-244], for which the IC50 is above 25 µM.

In turn, `COc1ccccc1C(=O)Nc1cc(Cl)ccc1C(=O)O` had an IC50 above 25 µM.

The compound `N#Cc1ccc(NC(=O)Cn2sc3ccccc3c2=O)cc1` [KUC104552N] registered an IC50 above 25 µM.

`COC(=O)c1cc(Cl)ccc1NC(=O)c1ccc(OC)cc1` [methyl 5-chloranyl-2-[(4-methoxyphenyl)carbonylamino]benzoate] yielded an IC50 above 25 µM.

`O=c1c2ccc([N+](=O)[O-])cc2sn1-c1ccccc1` [6-nitro-2-phenyl-1,2-benzothiazol-3-one] yielded an IC50 above 25 µM.

With `O=C1CCN(C(=O)Nc2cc(Cl)ccc2C(=O)O)CC1` [4-chloro-2-[[oxo-(4-oxo-1-piperidinyl)methyl]amino]benzoic acid], the IC50 was above 25 µM.

Consider `Cc1ccc(C(=O)Nc2cc(Cl)ccc2C(=O)O)cc1C` [KUC106495N], for which the half-maximal inhibitory concentration (IC50) is above 25 µM.

For the compound `O=C(Cn1sc2ccccc2c1=O)Nc1ccccc1C(F)(F)F` [KUC105610N], the IC50 is above 25 µM.

For the compound `COC(=O)c1ccc(Cl)cc1NC(=O)c1ccc(Cl)cc1`, the IC50 is above 25 µM.

Take `COc1ccc(Nc2cc(Cl)ccc2C(=O)O)cc1` [4-chloro-2-(4-methoxyanilino)benzoic acid]: the IC50 was above 25 µM.

Turning to `Cc1ccc(C(=O)Nc2cc(Cl)ccc2C(=O)O)cc1` [4-chloro-2-[(4-methylbenzoyl)amino]benzoic acid], the IC50 was above 25 µM.

`O=C(Cn1sc2ccccc2c1=O)N1CCCCC1`: the 50% inhibitory concentration (IC50) is above 25 µM.

With `COc1ccc(C(=O)Nc2ccccc2C(=O)O)cc1` [KUC106458N], the concentration for half-maximal inhibition (IC50) was above 25 µM.

Consider `O=c1c2cc(F)ccc2sn1-c1ccccc1Cl`, for which the IC50 was above 25 µM.

`O=c1c2ccccc2sn1-c1ccccc1` [2-phenyl-1,2-benzothiazol-3-one] came in with an IC50 above 25 µM.

Consider `Cc1ccccc1N1Cc2ccccc2C1=O` [KUC103869N], for which the IC50 is above 25 µM.

Compound `CCCc1ccc(C(=O)Nc2cc(Cl)ccc2C(=O)O)cc1` registered an IC50 above 25 µM.

In turn, `COC(=O)c1ccc(Cl)cc1NC(=O)c1ccccc1OC` [4-chloro-2-[[(2-methoxyphenyl)-oxomethyl]amino]benzoic acid methyl ester] returned an IC50 above 25 µM.

As to `O=c1c2ccccc2sn1-c1ccccc1F`, the IC50 is above 25 µM.

Regarding `CCc1ccc(C(=O)Nc2cc(Cl)ccc2C(=O)O)cc1` [KSC-6-279], the half-inhibitory concentration (IC50) is above 25 µM.

Compound `COC(=O)c1ccc(Cl)cc1NS(=O)(=O)c1ccc(OC)cc1` came in with an IC50 above 25 µM.

On to `COc1ccc2c(c1)CN(c1cc(Cl)ccc1C(=O)O)C2=O` [4-chloro-2-(6-methoxy-3-oxo-1H-isoindol-2-yl)benzoic acid], for which the IC50 is above 25 µM.

`Cc1ccc(C(=O)Nc2cc(Cl)ccc2C(=O)O)c(C)c1` [4-chloro-2-[[(2,4-dimethylphenyl)-oxomethyl]amino]benzoic acid] gave an IC50 above 25 µM.

`COc1cccc(C(=O)Nc2cc(Cl)ccc2C(=O)O)c1` yielded an IC50 above 25 µM.

On to `COc1ccc(C(=O)NC(CC(=O)O)c2ccc(Cl)cc2)cc1` (stereo unspecified) [3-(4-chlorophenyl)-3-[(4-methoxyphenyl)carbonylamino]propanoic acid], for which the IC50 is above 25 µM.

The compound `CC(=O)Nc1ccc2c(=O)n(-c3ccccc3)sc2c1` [KUC104218N] yielded an IC50 above 25 µM.

Consider `COc1ccc(C(=O)Nc2cc(Cl)ccc2C(=O)O)cc1` [4-chloranyl-2-[(4-methoxyphenyl)carbonylamino]benzoic acid], for which the IC50 is above 25 µM.

`O=c1ccsn1-c1ccccc1` [2-Phenyl-isothiazol-3-one] showed an IC50 above 25 µM.

Turning to `N#Cc1ccccc1NC(=O)Cn1sc2ccccc2c1=O`, the 50% inhibitory concentration (IC50) is above 25 µM.

As to `O=C(Nc1cc(Cl)ccc1C(=O)O)c1ccc(Cc2ccccc2)cc1` [4-chloranyl-2-[[4-(phenylmethyl)phenyl]carbonylamino]benzoic acid], the IC50 is above 25 µM.

`COc1ccc2c(=O)n(-c3ccccc3)sc2c1` [KUC105410N] returned an IC50 above 25 µM.

For the compound `COc1ccccc1-n1sc2ccccc2c1=O` [KUC103854N], the IC50 was above 25 µM.

In the case of `O=C(Nc1cc(Cl)ccc1C(=O)O)c1cocn1` [KUC105934N], the IC50 was above 25 µM.

As to `O=c1c2ccccc2sn1-c1ccccc1Cl`, the IC50 was above 25 µM.

For `COc1ccc(C(=O)O)c(NC(=O)c2ccc(Cl)cc2)c1`, the IC50 was above 25 µM.

For the compound `O=C(Nc1cc(Cl)ccc1C(=O)O)c1ccc(-c2cccs2)cc1` [KUC106464N], the IC50 is above 25 µM.

`O=C(Cn1sc2ccccc2c1=O)Nc1ccc(Br)cc1` [N-(4-bromophenyl)-2-(3-oxo-1,2-benzothiazol-2-yl)acetamide]: the IC50 was above 25 µM.

`O=C(Cn1sc2ccccc2c1=O)NC1CCCCC1`: the IC50 was above 25 µM.

As to `OB1OCc2cc(C(F)(F)F)ccc21` [KSC-6-287], the IC50 was above 25 µM.

Take `CCCCCCC(=O)Nc1cc(Cl)ccc1C(=O)O` [4-chloro-2-(1-oxoheptylamino)benzoic acid]: the half-maximal inhibitory concentration (IC50) is above 25 µM.

`O=C(Nc1cc(Cl)ccc1C(=O)O)c1ccc(Cl)cc1` [4-chloranyl-2-[(4-chlorophenyl)carbonylamino]benzoic acid]: the IC50 is above 25 µM.

In turn, `Cc1ccccc1-n1sc2cc(F)ccc2c1=O` [6-fluoranyl-2-(2-methylphenyl)-1,2-benzothiazol-3-one] registered an IC50 above 25 µM.

With `COc1ccc(C(=O)Nc2cc(C)ccc2C(=O)O)cc1` [2-[(4-methoxyphenyl)carbonylamino]-4-methyl-benzoic acid], the IC50 is above 25 µM.

The compound `COc1ccccc1NC(=O)Cn1sc2ccccc2c1=O` [N-(2-methoxyphenyl)-2-(3-oxidanylidene-1,2-benzothiazol-2-yl)ethanamide] had a half-maximal inhibitory concentration (IC50) above 25 µM.

Compound `O=C(Cn1sc2ccccc2c1=O)Nc1cccc(I)c1` [KUC104222N] registered an IC50 above 25 µM.

Take `O=C(Cn1sc2ccccc2c1=O)Nc1cccc(C(F)(F)F)c1` [KUC104221N]: the IC50 was above 25 µM.

Consider `O=C(O)c1ccc(Cl)cc1NC(=O)C1CCOCC1` [KUC106462N], for which the IC50 was above 25 µM.

Turning to `CN(C)c1ccc(C(=O)Nc2cc(Cl)ccc2C(=O)O)cc1` [KUC105997N], the IC50 was above 25 µM.

As to `O=C(Nc1cc(Cl)ccc1C(=O)O)c1ccc2ccccc2c1` [4-chloro-2-[[2-naphthalenyl(oxo)methyl]amino]benzoic acid], the IC50 is above 25 µM.

The compound `CC(C)(C)c1ccc(C(=O)Nc2cc(Cl)ccc2C(=O)O)cc1` [KSC-18-037] displayed an IC50 above 25 µM.

Compound `CC(=O)Nc1cc(Cl)ccc1C(=O)O` [KUC105931N] returned an IC50 above 25 µM.

Regarding `N#Cc1ccc(Oc2ccc3c(c2)B(O)OC3)cc1` [KSC-6-289], the IC50 is above 25 µM.

Consider `O=c1c2ccccc2sn1-c1cccc(Cl)c1` [2-(3-chlorophenyl)-1,2-benzothiazol-3-one], for which the IC50 is above 25 µM.

The compound `COc1ccc(C(=O)Nc2cc(Cl)ccc2[N+](=O)[O-])cc1` [KSC-6-266] had a half-inhibitory concentration (IC50) above 25 µM.

On to `COc1ccc(C(=O)NC(CC(=O)O)c2ccccc2)cc1` (stereo unspecified) [sodium;3-[(4-methoxybenzoyl)amino]-3-phenylpropanoate], for which the IC50 was above 25 µM.

The compound `O=C(Cn1sc2ccccc2c1=O)Nc1cccc(F)c1` [N-(3-fluorophenyl)-2-(3-oxo-1,2-benzothiazol-2-yl)acetamide] showed an IC50 above 25 µM.

The compound `COc1ccc(C(=O)Nc2cc(OC)ccc2C(=O)O)cc1` [KUC105624N] gave an IC50 above 25 µM.

In the case of `COc1ccc(CC(=O)Nc2cc(Cl)ccc2C(=O)O)cc1` [KUC105993N], the IC50 is above 25 µM.

(Values after BindingDB's records for doi:10.7270/Q2C53J9J (University of Pittsburgh, 2010).)
